Laboratory results reported in patent publication US20210275562A1, “CANCER TREATMENT METHODS” (priority 2020, published 2021).

Experiments:
S phase cells = assay: BRDU/EDU injection labelling of S phase cells in living animals; assay type: in vivo, mouse
Excerpt: It has been estimated in the literature that the cell cycle would be between 12 hr and 2 days in the crypt cells of the gut. These are the cells that are constantly dividing and give rise to mature gut cells forming the lining of the intestinal tract. […] Both EDU and BRDU are incorporated only into DNA of cells actively synthesizing DNA, S phase cells. Both are rapidly removed from circulation if not incorporated into DNA, so that a cell containing EDU or BRDU in its DNA would have been in S phase at the time of injection, or shortly thereafter. Indeed, an injection of either marker is effectively a 1 hr pulse with that marker. BRDU is identified with an antibody stain, while EDU is identified by a separate chemical stain. Different fluorochromes are used to identify the two stains, so that cells which incorporated either, or both, can readily be identified. With the use of our image analysis approach, the labeling with each fluorochrome can be accurately quantitated.
Thus, with EDU and BRDU, it was possible to determine which cells had been in S phase at two different times. BRDU was normally injected intraperitoneally (IP) into animals at time zero. […] 40 minutes following the EDU injection the animals were euthanized and tissues collected, imbedded in paraffin, and stained. It was possible to tell which cells had been in S phase at the beginning of the experiment from the BRDU stain. […]

crypt cells = assay: Proof of principle: two EDU injections in mice given BRDU in drinking water; assay type: in vivo, mouse
Procedure: The experiment to validate this procedure was designed as follows: Mice were given BRDU in their drinking water at the beginning of the experiments. This constant supply of BRDU would label all proliferative cells over the length of the experiment. 4 hr after BRDU-containing drinking water was given to the animals, two injections of EDU were given. These injections were spaced 5, 8, 11, 14, 17, and 20 hr apart in separate animals. At 40 min following the final injection tissue was collected, fixed, imbedded, stained, and analyzed as described above. The goal was to determine how many cells were labeled with BRDU and NOT WITH EDU. EDU in this experiment represents the toxic treatment. Any cell labelled with EDU would be expected to be killed by the appropriate S phase specific toxin. The surviving cells would, therefore, be identified by BRDU positive, EDU negative cells. As with many proof of principle experiments, this one has a drawback that must be considered. BRDU remains present in cells that differentiate and move up the villi towards the lumen of the gut. Cells on the verge of terminal differentiation would be labelled with BRDU but cease dividing prior to the administration of EDU. This would result in an over-estimate of the number of BRDU+ and EDU− cells (those that survive the treatments), particularly at later times in the analysis. […]

| Structure (SMILES) | effective pulse length of the marker after one injection (S phase cells; mouse, in vivo) [h] | BRDU positive cells remaining unlabeled with EDU (cells proposed to survive treatment) (crypt cells; two EDU injections spaced 14 hr apart) [%] | level of BRDU+ and EDU- cells (cells proposed to survive treatment) (crypt cells; two EDU injections spaced 17 hr apart, may be overestimated) | effective pulse length of the marker after one injection (S phase cells; rapidly removed from circulation if not incorporated into DNA) [h] |
| --- | --- | --- | --- | --- |
| O=c1[nH]c(=O)n([C@H]2C[C@H](O)[C@@H](CO)O2)cc1Br [BRDU, bromodeoxyuridine] | 1 |  |  |  |
| C#Cc1cn([C@H]2C[C@H](O)[C@@H](CO)O2)c(=O)[nH]c1=O [EDU, 5-ethynyl-2′-deoxyuridine] |  | ~40 | remain high | 1 |
